Earlier results as cited in patent US12343417B2, “Antiperspirant compositions” (Conopco, Inc., priority 2018, dated 2025).

tested on: Staphylococcus epidermidis; details: 80% or greater reduction in growth over 16 to 24 hours at 37° C.

Q: For CCO [ethanol], which MIC is on record?
A: greater than 1 mg·ml^−1

Q: With Oc1cc(Cl)ccc1Oc1ccc(Cl)cc1Cl [triclosan, 2′,4,4′-trichloro,2-hydroxy-diphenyl ether] as the compound, how does the MIC read?
A: 0.01 to 10 µg/mL

Q: Which MIC does the source give for CC(C)=CCCC(C)=CCCC(C)=CCO [farnesol, 3,7,11-trimethyldodeca-2,6, 10-trienol] here?
A: ca. 25 μg·ml^−1
